From US20230075822A1, “USE OF CASTALAGIN OR ANALOGS THEREOF FOR ANTI-CANCER EFFICACY AND TO INCREASE THE RESPONSE TO IMMUNE CHECKPOINT INHIBITORS” (THE ROYAL INSTITUTION FOR THE ADVANCEMENT OF …, priority 2020, published 2023)

System: MCA-205 sarcoma
Assay: Subcutaneous MCA-205 sarcoma tumor model (anti-PD-1 sensitive), SPF-reared mice
Assay type: in vivo, C57BL/6 mice
Conditions: for anti-cancer activity (tumor size at sacrifice): in the presence of anti-PD-1
Protocol: FIG. 1A is a schematic of the protocol used to study the effect of a Camu camu extract (CC) alone and additive effect when combined to anti-PD-1 therapy in a murine tumor model sensitive to anti-PD-1 therapy. Syngeneic C57BL/6 mice were implanted with 0.8×10^6 MCA-205 sarcoma, subcutaneously and treated intraperitoneally (i.p.) when tumors reached 20 to 35 mm^2 in size with anti-PD-1 mAb (250 μg/mouse; clone RMP1-14,) or isotype control (clone 2A3) with or without daily oral gavage with 200 mg/kg of [NT] Powder from SunFood). Murine studies. All animal studies were approved by the Institutional Animal Care Committee (CIPA) and carried out in compliance with the Canadian Council on Animal Care guidelines. Murine experiments were conducted using seven-week-old female C57BL/6 mice, obtained from Charles River, Canada. Germ-free female C57BL/6 mice were purchased from the International Microbiome Centre Germ-Free Facility (University of Calgary, Canada) and maintained at the CR-CHUM Germ-Free Facility. Cell culture, reagents and tumor cell lines. MCA-205 fibrosarcoma cells and E0771 mammary adenocarcinoma cells, class I MHC H-2b syngeneic cell lines for C57BL/6 mice, were used for this study. MCA-205 cells were cultured at 37° C. in the presence of 5% CO2 in Roswell Park Memorial Institute (RPMI) 1640 (Gibco-lnvitrogen) containing 10% Fetal bovine serum (FBS) (Wisent), 2 mM L-glutamine (Wisent), 100 IU/ml penicillin/streptomycin (Wisent), 1 mM sodium pyruvate (Wisent) and MEM non-essential amino acids (Gibco-lnvitrogen). E0771 cells were cultured at 37° C. in the presence of 5% CO2 in Dulbecco's Modified Eagle's Medium (DMEM) (Gibco-lnvitrogen) containing 10% FBS (Wisent), 2 mM L-glutamine, 100 IU/ml penicillin/streptomycin (Wisent), 1 mM sodium pyruvate (Wisent). Subcutaneous model of MCA-205 sarcoma and E0771 breast cancer. Syngeneic C57BL/6 mice were implanted with 0.8×10^6 MCA-205 or 0.5×10^6 E0771 subcutaneously. When tumors reached 20 to 35 mm^2 in size, mice were treated four times (or two times for flow cytometry analysis, see section below) intraperitoneally (i.p.) every three day with anti-PD-1 monoclonal antibody (mAb) (250 μg/mouse; clone RMP1-14, BioXcell) or isotype control (clone 2A3, BioXcell). Upon treatment initiation, mice received a daily oral gavage with the following products: Myrciaria dubia, [NT] raw extract (Sunfood) (200 mg/kg per mouse), fractions from the extraction round 1 (P, INT, NP, Insol) (40.18 mg/kg per mouse), fractions from the extraction round 2 (P1, P2, P3 and P4) (equivalent to fraction P dose of 40.18 mg/kg per mouse), […] (extracted from CC, see isolation process below) (0.85 mg/kg per mouse), ellagic acid (0.85 mg/kg per mouse) (Sigma-Aldrich), urolithin A (0.85 mg/kg per mouse) (Sigma-Aldrich), […] (0.5 mg/kg per mouse) (PhytoProof®, Sigma-Aldrich) and castalagin at different concentration: 1/8, 1/6, 1/4, 1/2 of the standard concentration, at the standard concentration (0.85 mg/kg per mouse), 1.5-fold (1.25 mg/kg per mouse) and three-fold increase concentration (2.55 mg/kg per mouse) (PhytoProof©, Sigma-Aldrich or isolated from food grade oak, see isolation process below). In the control group mice received daily oral gavage with water (100 μL) Tumor area was routinely monitored every three days by means of a caliper. In the depletion experiments, we used the anti-CD8 mAb (150 μg/mouse; clone 53-6.7, BioXcell) or isotype control (clone 2A3, BioXcell.

In the case of O=C1OC[C@H]2OC(=O)c3cc(O)c(O)c(O)c3-c3c(O)c(O)c(O)c4c3C(=O)O[C@H]([C@H]3OC(=O)c5c-4c(O)c(O)c(O)c5[C@@H]3O)[C@@H]2OC(=O)c2cc(O)c(O)c(O)c2-c2c1cc(O)c(O)c2O [castalagin, Castalagin], the “dose dependence of anti-cancer activity” value (6 concentrations from ⅛ to 3-fold the standard dose) is reported as “dose-dependent effect with a potential plateau”, the antitumor effect (dose experiment, 1/4 concentration dose (0.21 mg/kg)) is reported as “no antitumor effect” and the “anti-cancer activity (tumor size at sacrifice)” value (dose experiment, 3-fold concentration (2.55 mg/kg per mouse)) is reported as “did not the standard dose”. For the same compound, the “anti-cancer activity (tumor size at sacrifice)” value (dose experiment, standard dose (0.85 mg/kg)) was “anti-cancer activity became significant” and the “anti-cancer activity (tumor size at sacrifice)” value (dose experiment, ½ dose (0.42 mg/kg)) was “Some anti-cancer activity was observed”.
